These are literature values, as cited in paper PMC6862717 (ACS chemical neuroscience, 2018).

Series [1] deals with transgenic animal model of AD.
Series [2] has as its system animal model of neuropathic pain.

In the case of `CN1CCN(c2ccc3c(c2)[C@H]2C[C@@H]3CCN2C(=O)OCc2ccccc2)CC1` (racemic) [SAS-0132], the “efficacy in a transgenic animal model of AD” value in series [1] is on record as “efficacious”. In the series on nematodes, the “neuroprotective properties in nematodes” value is on record as “shows neuroprotective properties”. For the same compound, the “cognitive performance in wild-type mice” value in the series on wild-type mice was “improves cognitive performance”.
Take UKH-1114: the mechanical hypersensitivity entry in series [2] was “relieves mechanical hypersensitivity”.
